Assay results from PubChem BioAssay (NCI).
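96-well plates; 48 h exposure; 5 concentrations. Endpoints by linear interpolation between flanking doses. Not reached: highest tested concentration assigned. TGI: total growth inhibition.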

Assays:
Test in all cases: DTP human tumour cell line panel, 48 h
[1] = test system: RXF 393 renal
[2] = test system: NCI-H460 lung
[3] = test system: UACC-257 melanoma
[4] = test system: SN12C renal
[5] = test system: HL-60(TB) leukemia
[6] = test system: SF-295 CNS
[7] = test system: NCI/ADR-RES ovarian
[8] = test system: 786-0 renal
[9] = test system: UACC-62 melanoma
[10] = test system: EKVX NSCLC
[11] = test system: K-562 leukemia
[12] = test system: HOP-62 NSCLC
[13] = test system: OVCAR-3 ovarian
[14] = test system: SK-MEL-5 melanoma
[15] = test system: OVCAR-5 ovarian
[16] = test system: SR leukemia
[17] = test system: SK-MEL-2 melanoma
[18] = test system: ACHN renal
[19] = test system: CAKI-1 renal
[20] = test system: HOP-92 NSCLC
[21] = test system: SNB-75 CNS
[22] = test system: BT-549 breast
[23] = test system: A549 NSCLC
[24] = test system: T-47D breast
[25] = test system: MDA-N
[26] = test system: MDA-MB-435
[27] = test system: HCT-116 colon
[28] = test system: IGROV1 ovarian
[29] = test system: SF-268 CNS
[30] = test system: TK-10 renal
[31] = test system: A498 renal
[32] = test system: PC-3 prostate
[33] = test system: MDA-MB-231 breast
[34] = test system: HT29 colon
[35] = test system: SNB-19 CNS
[36] = test system: OVCAR-8 ovarian
[37] = test system: NCI-H23 lung
[38] = test system: U251 CNS
[39] = test system: SK-MEL-28 melanoma
[40] = test system: HCT-15 colon
[41] = test system: OVCAR-4 ovarian
[42] = test system: MOLT-4 leukemia
[43] = test system: M14 melanoma
[44] = test system: DU-145 prostate
[45] = test system: NCI-H522 lung
[46] = test system: UO-31 renal
[47] = test system: SW-620 colon
[48] = test system: LOX IMVI melanoma
[49] = test system: MALME-3M melanoma
[50] = test system: NCI-H226 lung
[51] = test system: SK-OV-3 ovarian
[52] = test system: COLO 205 colon
[53] = test system: KM12 colon
[54] = test system: HCC-2998 colon
[55] = test system: RPMI-8226 leukemia
[56] = test system: MCF7 breast

`COC(=O)c1cc(=O)[nH]c(=O)[nH]1` was tested, and the TGI [1] was greater than 100 µM, the TGI [2] was greater than 100 µM and the TGI [3] was greater than 100 µM. It also gave a TGI [4] greater than 100 µM, a TGI [5] greater than 100 µM and a TGI [6] greater than 100 µM. It also gave a TGI [7] greater than 100 µM, a TGI [8] greater than 100 µM and a TGI [9] greater than 100 µM. It also gave a TGI [10] greater than 100 µM, a TGI [11] greater than 100 µM and a TGI [12] greater than 100 µM. The TGI [13] was greater than 100 µM, the TGI [14] was greater than 100 µM and the TGI [15] was greater than 100 µM. For the same molecule, the TGI [16] was greater than 100 µM, the TGI [17] was greater than 100 µM and the TGI [18] was greater than 100 µM. It also gave a TGI [19] greater than 100 µM, a TGI [20] greater than 100 µM and a TGI [21] greater than 100 µM. For the same molecule, the TGI [22] was greater than 100 µM, the TGI [23] was greater than 100 µM and the TGI [24] was greater than 100 µM. For the same molecule, the TGI [25] was greater than 100 µM, the TGI [26] was greater than 100 µM and the TGI [27] was greater than 100 µM. For the same molecule, the TGI [28] was greater than 100 µM, the TGI [29] was greater than 100 µM and the TGI [30] was greater than 100 µM. The TGI [31] was greater than 100 µM, the TGI [32] was greater than 100 µM and the TGI [33] was greater than 100 µM. The TGI [34] was greater than 100 µM, the TGI [35] was greater than 100 µM and the TGI [36] was greater than 100 µM. The TGI [37] was greater than 100 µM, the TGI [38] was greater than 100 µM and the TGI [39] was greater than 100 µM. The TGI [40] was greater than 100 µM, the TGI [41] was greater than 100 µM and the TGI [42] was greater than 100 µM. The TGI [43] was greater than 100 µM, the TGI [44] was greater than 100 µM and the TGI [45] was greater than 100 µM. The TGI [46] was greater than 100 µM, the TGI [47] was greater than 100 µM and the TGI [48] was greater than 100 µM. For the same molecule, the TGI [49] was greater than 100 µM and the TGI [50] was greater than 100 µM.

With `COc1ccc(N2C(=O)CC(=O)N(C(=O)COc3ccc(OCC(=O)N4C(=O)CC(=O)N(c5ccc(OC)cc5)C4=S)cc3)C2=S)cc1` the TGI [1] was 77.3 µM, the TGI [2] was greater than 100 µM and the TGI [3] was greater than 100 µM. For the same molecule, the TGI [4] was greater than 100 µM, the TGI [6] was greater than 100 µM and the TGI [7] was greater than 100 µM. It also gave a TGI [8] greater than 100 µM, a TGI [9] greater than 100 µM and a TGI [51] greater than 100 µM. For the same molecule, the TGI [10] was greater than 100 µM, the TGI [11] was greater than 100 µM and the TGI [52] was 39.8 µM. It also gave a TGI [14] greater than 100 µM, a TGI [15] greater than 100 µM and a TGI [17] greater than 100 µM. It also gave a TGI [18] greater than 100 µM, a TGI [19] of 30.3 µM and a TGI [20] greater than 100 µM. It also gave a TGI [21] greater than 100 µM, a TGI [22] greater than 100 µM and a TGI [23] greater than 100 µM. The TGI [25] was greater than 100 µM, the TGI [26] was greater than 100 µM and the TGI [27] was 39.5 µM. The TGI [28] was greater than 100 µM, the TGI [29] was greater than 100 µM and the TGI [30] was greater than 100 µM. For the same molecule, the TGI [31] was greater than 100 µM, the TGI [32] was greater than 100 µM and the TGI [33] was greater than 100 µM. For the same molecule, the TGI [34] was greater than 100 µM, the TGI [35] was greater than 100 µM and the TGI [37] was greater than 100 µM. For the same molecule, the TGI [38] was greater than 100 µM, the TGI [39] was greater than 100 µM and the TGI [40] was greater than 100 µM. For the same molecule, the TGI [41] was greater than 100 µM, the TGI [42] was greater than 100 µM and the TGI [43] was greater than 100 µM. The TGI [44] was greater than 100 µM, the TGI [53] was 32.6 µM and the TGI [45] was greater than 100 µM. The TGI [46] was greater than 100 µM, the TGI [47] was greater than 100 µM and the TGI [54] was greater than 100 µM. It also gave a TGI [55] greater than 100 µM, a TGI [49] greater than 100 µM and a TGI [50] greater than 100 µM. For the same molecule, the TGI [56] was greater than 100 µM.
